The record followed here is ChEMBL document CHEMBL1124577, “LH-RH antagonists: design and synthesis of a novel series of peptidomimetics” (J Med Chem, 1989).

What is called pIC50 is −log10 of the IC50, conventionally taken in molar units. A lower pIC50 goes with a high IC50. Usually pKd stands for −log10 of the Kd, conventionally taken in molar units. Higher therefore signals a small Kd.

For test [1], the target named is T1, Gonadotropin-releasing hormone receptor (Rattus norvegicus, UniProt P30969).
T1 sequence (P30969 whole entry): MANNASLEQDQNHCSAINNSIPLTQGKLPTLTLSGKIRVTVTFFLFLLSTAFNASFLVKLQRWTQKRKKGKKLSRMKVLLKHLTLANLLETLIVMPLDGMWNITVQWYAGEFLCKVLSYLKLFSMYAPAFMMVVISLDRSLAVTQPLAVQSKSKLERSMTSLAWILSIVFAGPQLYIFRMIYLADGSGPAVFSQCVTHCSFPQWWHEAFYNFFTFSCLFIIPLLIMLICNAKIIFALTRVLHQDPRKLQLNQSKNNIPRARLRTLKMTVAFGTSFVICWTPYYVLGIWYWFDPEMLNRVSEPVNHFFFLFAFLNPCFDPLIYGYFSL
In words: Binding affinity at Leutinizing releasing hormone receptor in rat pituitary using [125I]leuprolide as radioligand.

Test [2] concerns the target T1, Gonadotropin-releasing hormone receptor. Nature of the test: Dissociation constant was determined in vitro using rat pituitary membranes, at concentration 1.0*10e-5 M. In kind it is cell membranes.
Test [3] shares this target. In words: Dissociation constant was determined in vitro using rat pituitary membranes and [125I]-leuprolide as radioligand, at concentration 3.16*10e-6 M. In kind it is cell membranes.
Test [4] shares this target. Nature of the test: Binding affinity at LH-RH receptor in rat pituitary using [125I]leuprolide as radioligand.
For test [5] the target is unchanged. Nature of the test: Dissociation constant was determined in vitro using rat pituitary membranes and [125I]leuprolide as radioligand, at concentration 3.16*10e-5 M. In kind it is cell membranes.
The target in test [6] is T2, Gonadotropin-releasing hormone receptor (Rattus norvegicus) (UniProt P30969).
T2 sequence (whole entry): T1 sequence (P30969 whole entry)
Nature of the test: Apparent receptor density at 1.0*10e-5 M concentration.

For test [7], the species on record is Rattus norvegicus. In words: Antagonism of leuprolide-induced release of luteinizing hormone from rat pituitary cell. In kind it is functional. The note with it: Pituitary gland cell, read-out: pA2 (converted).
Test [8] has as its target T2, Gonadotropin-releasing hormone receptor (Rattus norvegicus). Nature of the test: Apparent receptor density at 3.16*10e-5 M concentration.
The target is the same in test [9]. In words: Apparent receptor density at 3.16*10e-6 M concentration.

pIC50, pKd: −log10 of the molar value.

For the compound `O=C(NC[C@H]1CO[C@](Cn2ccnc2)(c2ccc(Cl)cc2Cl)O1)C1CCC(=O)N1C(=O)OCc1ccccc1` (some centres not stated), the pIC50 in test [1] is less than 4.52.

On to `Clc1ccc([C@@]2(Cn3ccnc3)OC[C@H](COc3ccccc3)O2)c(Cl)c1`, for which, in test [1], the pIC50 was less than 4.52.

With `Clc1ccc([C@@]2(Cn3ccnc3)OC[C@H](CNCc3c[nH]c4ccccc34)O2)c(Cl)c1`, in test [1], the pIC50 was less than 4.52.

For `CC(=O)N1CCN(c2ccc(OCC3COC(Cn4ccnc4)(c4ccc(Cl)cc4Cl)O3)cc2)CC1` (configuration not stated) [KETOCONAZOLE], the pKd in [2] is 9.43; in test [3], 9.66; in test [5], 6.09. This compound also gave a pIC50 in test [4] of 5.70. Also, the Bmax is 2.01 pmol/mg in test [6], 1.6 pmol/mg in [8] and 1.91 pmol/mg in test [9]. For the same compound, in test [7], the Kb is 64600 nM.

In turn, `CCC(C)n1ncn(-c2ccc(N3CCN(c4ccc(OC[C@H]5CO[C@](Cn6ccnc6)(c6ccc(Cl)cc6Cl)O5)cc4)CC3)cc2)c1=O` (some centres not stated) gave a pIC50 in [1] of less than 4.52.

Consider `CC(C)(C)OC(=O)N[C@@H](Cc1c[nH]c2ccccc12)C(=O)N1CCC[C@H]1C(=O)N[C@@H](CC1=CNCN1)C(=O)NC[C@H]1CO[C@](Cn2ccnc2)(c2ccc(Cl)cc2Cl)O1`, for which the Kb in test [7] is 4570 nM. Further, the negative-log IC50 (pIC50) in [1] was 6.30.

The compound `O=C(NC[C@H]1CO[C@](Cn2ccnc2)(c2ccc(Cl)cc2Cl)O1)[C@H](Cc1c[nH]cn1)NC(=O)[C@@H]1CCC(=O)N1C(=O)OCc1ccccc1` gave a pIC50 in [1] of 5.70.

`O=C1c2ccccc2C(=O)N1C[C@H]1CO[C@](Cn2ccnc2)(c2ccc(Cl)cc2Cl)O1` had a pIC50 in test [1] of less than 4.52.

Take `OC[C@H]1CO[C@](Cn2ccnc2)(c2ccc(Cl)cc2Cl)O1`: the pIC50 in test [1] is less than 4.52.
